Source: patent US8173618B2, “Formulations for reducing neuronal degeneration” (University of Massachusetts, priority 2003, dated 2012)
Entries after “also recorded” stand apart in the source; their conditions may differ.

What was measured:
[1] = test system: differentiated SH-SY-5Y cells; experiment: Intracellular ROS by DCFD fluorescence in differentiated SH-SY-5Y cells; assay type: cell-based, human; settings: for ROS: single agent, control cells and cells exposed to Abeta; for increase in ROS resulting from folate deprivation: simultaneously with folate deprivation; for increase in ROS: 20 μM Abeta25-35 two hours
Experimental: Cultured cells were used to test individual agents and formulations. In general, SH-SY-5Y human neuroblastoma cells were cultured in DMEM (Cellgro) containing 10% fetal bovine serum in 5% CO2.
For treatments with Abeta, differentiated cultures were transferred to medium without serum and treated for two hours with 20 μM Abeta25-35 (Sigma Chemical Co., St. Louis, Mo.). […] Louis, Mo.). In experiments calling for treatment of cell cultures with N-acetyl cysteine (NAC; NALC), cultures were treated with 10 mM NAC (Sigma Chemical Co., St. Louis, Mo.) after the culture was grown for two hours in serum-free medium.
(§1) Intracellular reactive oxygen species (ROS) were monitored as described in Ekinci et al., 1999 (J. Biol. Chem., 274:30322-30327). Briefly, cells were incubated for 30 minutes with dichloro-fluorescein diacetate (DCFD; acetoxymethyl ester; Molecular Probes, Inc., Eugene, Oreg.), which is used to detect intracellular peroxide levels. Incubation was followed by rinsing of cultures in serum-free medium and immediate capture of images using UV optics. Images were captured under epifluorescent and phase-contrast illumination using a DAGE CCL-72 cooled CCD camera via a Scion LG-3 frame grabber operated by NIH Image (see the Internet at rsb.info.nih.gov/nih-image). Images were then stored as PICT files on a Macintosh Power PC 7100AV for subsequent analysis. At least 100 cells in randomly-selected fields from duplicate cultures derived from multiple experiments were scored for fluorescent intensity using NIH Image analysis software. Representative background areas devoid of cells were similarly analyzed and subtracted from cell values to yield net densitometric values. All fields for each individual assay were illuminated, captured, and processed under identical settings. Corresponding phase-contrast images were obtained. Cell aggregates were excluded from the assays; only individual cells were quantified. Values were exported to Excel for statistical analyses using Student's t test.
For monitoring of intracellular peroxide concentrations as an index of ROS, cultures received 10 μl/ml DFCD (2′7′-dichlorofluorescein diacetate; Kodak) for 20 minutes. Cultures were then visualized under fluorescein UV optics (perikaryon; Ekinci and Shea, 1999, supra).

[2] = test system: differentiated SH-SY-5Y cells; experiment: Externalized phosphatidylserine (meracyanine fluorescence) as index of apoptosis in SH-SY-5Y cells; assay type: cell-based, human; settings: co-treatment with 50 μM ALCAR, 20 μM Abeta
Experimental: (§2) Levels of externalized phosphatidylserine (PS) were used as a measure of apoptosis (Rimon et al., 1997, J. Neurosci. Res., 48:563-570). Briefly, cultures were subjected to treatments then rinsed with PBS and incubated with 10 μl/ml merocyanine (Upstate Biotech, Lake Placid, N.Y.), followed by examination under rhodamine optics (Ekinci et al, 1999, J. Biol. Chem., 274:30322-30327).
The question of whether folate deficiency is associated with apoptosis was investigated. […] Overall detachment, a further sign of cell death, was evident by the seventh day in the serum-deprived cultures. The detachment phenomenon precluded longer experiments.
(§3) The effect of ALCAR on differentiated SH-SY-5Y cells treated with Abeta was examined. Cells were cultured in 20 μM Abeta in the presence and absence of ALCAR. Some cultures were pretreated with 50 μM ALCAR for 30 minutes. In these experiments, the ALCAR-containing medium was replaced with medium containing Abeta and no ALCAR then incubated for two hours before being assayed. Cultures were assayed for ROS, apoptosis, and ATP.

[3] = test system: differentiated SH-SY-5Y cells; experiment: ATP levels in Abeta-treated SH-SY-5Y cells; assay type: cell-based, human
Experimental: FIG. 11 is a bar graph showing the results of experiments examining apoptosis in which differentiated SH-SY-5Y cells cultured in the presence or absence of Abeta, with or without ALCAR for two hours, and assayed for ATP using spectrophotometric methods known in the art.
as §3

SH-SY-5Y cells [4] = experiment: HPLC of homocysteine in SH-SY-5Y cell lysates and medium; assay type: cell-based, human; settings: 25 μM DZA during folate deprivation
Experimental: (§4) Glutathione levels were quantified in homogenates of SH-SY-5Y cells. Cultures were rinsed twice with Tris-buffered saline (TBS), scraped from the plate in a small volume of TBS and homogenized on ice. Medium was also utilized for analysis of HCY along with cellular lysates, since HCY is normally exported from cells. Homogenates (100 μl) were reduced by mixing with 50 μl of 100 μM N-acetylcysteine or with 30 μl of 30 μM cystamine (as an internal standard) and 10 μl of tri-carboxyethylphosphine (100 mg/ml in 0.05 M HCl). Samples were vortexed, incubated at room temperature for 30 minutes, then centrifuged at 10,000×g for 10 minutes. 80 μl of the resulting supernatant were combined with 160 μl of 2 M boric acid/4 mM EDTA (pH 10.5), followed by 80 μl of 1.0 mg/ml SBDF [7-fluorobenzo-2-oxa-1,3-diazole-4-sulfonate] in boric acid/EDTA buffer). Samples were mixed, incubated for 60 minutes at 60° C., equilibrated to reach temperature, and 50 μl of the sample was then injected into a Hewlett Packard model 1090 HPLC, which is used with a 1046A fluorescence detector and a Hewlett Packard 4.6×60 mm high-speed analytical column packed with 3 μM ODs (C18) Hypersil silica. The mobile phase consisted of methanol/0.2 M acetate buffer pH 4.0 (2/98 by volume). Glutathione concentrations were then determined by comparison of peak area ratios of glutathione to the internal standard N-acetylcysteine in the sample compared to peak areas obtained for a glutathione standard curve. Samples were derived from 3-4 normal and 3-4 ApoE−/− mice for each dietary condition, from ≧2 independent experiments (total n≧6 for each diet for both experiments).
Medium was then decanted, cells were scraped from the plate and homogenized, and medium and cellular lysates, along with an aliquot of fresh medium that had not been in contact with cells, were subjected to HPLC analyses.

SH-SY-5Y cells [5] = experiment: Homocysteine-induced apoptosis, meracyanine staining of externalized PS; assay type: cell-based, human
Experimental: FIG. 20 is a bar graph that depicts the results of experiments in which […] were treated with 250 μM homocysteine with or without 100 μM SAM, after which cultures were monitored for externalized PS via meracyanine staining as an indication of apoptosis. Values represent the mean (±standard error of the mean) in arbitrary densitometric units derived from densitometric analyses of 10-50 neurons from two cultures under each condition from two separate independent experiments.
as §2
Homocysteine induces apoptosis in cultured cells. To investigate the effect of SAM on HC-induced apoptosis, 100 μM SAM and homocysteine were added to cultured SH-SY-5Y cells and apoptosis was monitored by meracyanine staining to detect the externalization of PS.

SH-SY-5Y cells [6] = experiment: HPLC analysis of glutathione and thiols in SH-SY-5Y cells; assay type: cell-based, human; settings: NAC treatment in the absence of folate
Experimental: as §4
NAC directly scavenges ROS and also provide a source of intracellular cysteine for synthesis of glutathione during conditions of oxidative stress. […] Differentiated SH-SY-5Y cells with and without NAC treatment were subjected to HPLC along with 50 μM each of multiple thiol standards (“Standards”) as indicated in FIGS. 18A to 18C.

[7] = reported; cited from earlier work
cortical neurons = experiment: Intracellular ROS by DCFD fluorescence in cortical neurons; assay type: cell-based, mice; settings: folate-deficient medium two hours, 0.15 mg/ml vitamin E as alpha-tocopherol
Experimental: as §1, with “Ekinci” left out, “test. […]” for “test.”

normal and ApoE−/− mice = experiment: TBAR analysis of brain oxidative damage in mice on dietary regimens; assay type: in vivo; settings: deficiency in vitamin E alone
Source text: Damage resulting from the generation of intracellular reactive oxygen species can also be quantified using a TBAR assay (Ohkawa et al., Anal. Biochem., 95:351-358, 1979). This method is used to determine cellular lipid hydroperoxides in cultured cells by thiobarbituric acid reaction. Lipid hydroperoxides break down to malondialdehyde and other aldehydes. These react with thiobarbituric acid in a mildly acidic environment, which results in formation of a chromophore. The resulting chromophore is measured by light absorption or fluorescence techniques.
After one month, total brain tissue was harvested and subjected to TBAR analyses as described in Wittaker et al. (1996, supra).
Additional mice received the deficient diet supplemented with DZA (0.4 g/kg total diet weight), SAM (80 mg/kg diet weight) and NAC (1 g/kg diet weight). Total brain tissue was harvested and analyzed for TBARs.

[8] = no folate + 25 μM DZA, two hours

Compound: CC(=O)O[C@H](CC(=O)[O-])C[N+](C)(C)C [ALCAR, acetyl-L-carnitine]
- effect of Abeta on ROS generation ([1]; co-treatment with 50 μM ALCAR, 20 μM Abeta): reduced the effect of Abeta on ROS generation
- Abeta neurotoxicity (ROS, apoptosis) ([1]; pretreatment with 50 μM ALCAR for 30 minutes, followed by its removal): effective at preventing Abeta neurotoxicity
- ROS ([1]; two hours): reduced ROS
- effect of Abeta on apoptosis [2]: reduced
- Abeta-induced reduction in ATP levels ([3]; co-treatment and prior treatment with 50 μM ALCAR): prevented this reduction in ATP levels

Compound: Nc1nccc2c1ncn2[C@@H]1O[C@H](CO)[C@@H](O)[C@H]1O [DZA, 3-deazaadenosine]
- attenuation of the increase in ROS from folate deprivation ([1]; 25 μM DZA during folate deprivation): approximately 50%
- attenuation of the increase in ROS from folate deprivation ([1]; 25 μM DZA simultaneously with folate deprivation): attenuated the increase in ROS by slightly more than half
- ROS % increase vs. control [1, 8]: 16%
- ROS Mean ± SEM [1, 8]: 8.8 ± 0.3
- HCY formation and export (SH-SY-5Y cells [4]): prevented HCY formation and export to a level below that observed in cultures receiving folate

Compound: N[C@@H](CCS)C(=O)O [Homocysteine, homocysteine]
- externalization of PS (SH-SY-5Y cells [5]; homocysteine, 2 and 24 hours): progressively induced externalization of PS

Compound: CC(=O)N[C@@H](CS)C(=O)O [NAC, N-acetyl cysteine]
- intracellular cysteine (HPLC) (SH-SY-5Y cells [6]): marked increase
- intracellular glutathione (HPLC) (SH-SY-5Y cells [6]): marked increase
- increase in ROS resulting from folate deprivation ([1]; 1 mM NAC, two hours): prevented the increase in ROS
- increase in ROS resulting from folate deprivation ([1]; 10 mM NAC, two hours): prevented the increase in ROS
- ROS induced by Abeta ([1]; NAC (10 mM) applied 15 minutes after Abeta): quenched ROS
- entry into the CNS [7]: reported to enter or have effects in the CNS

Compound: C[S+](CC[C@H](N)C(=O)O)C[C@H]1O[C@@H](n2cnc3c(N)ncnc32)[C@H](O)[C@@H]1O (stereo partly shown) [SAM, S-adenosyl methionine]
- increase in ROS generated by folate deprivation ([1]; 100 μM SAM, two hours): attenuation of the increase in ROS; also recorded: reduced ROS levels to a greater extent than did incubation of cells in the presence of folate
- homocysteine-induced PS externalization (SH-SY-5Y cells [5]; 100 μM SAM, 2 hours): prevented PS externalization
- reduction of homocysteine-induced PS externalization (SH-SY-5Y cells [5]; 100 μM SAM, 24 hours): approximately 50%
- entry into the CNS [7]: reported to enter or have effects in the CNS

Compound: Cc1c(C)c2c(c(C)c1O)CC[C@@](C)(CCC[C@H](C)CCC[C@H](C)CCCC(C)C)O2 [vitamin E, alpha-tocopherol]
- ROS induction by Abeta ([1]; additional experiments, vitamin E): prevented
- ROS ([1]; two hours): reduced ROS
- ROS induced by Abeta ([1]; vitamin E (0.15 ng/mL) applied 15 minutes after Abeta): efficacy of vitamin E was markedly reduced; also recorded: but not vitamin E, quenched ROS
- ROS induced by Abeta ([1]; vitamin E (0.15 ng/mL) provided simultaneously with Abeta, two hours): approximately identical to that of control cells
- ROS generation during folate deprivation (cortical neurons): not prevented
- ROS in brain (TBAR) (normal and ApoE−/− mice; ApoE−/− knockout mice): did increase ROS
- ROS in brain (TBAR) (normal and ApoE−/− mice; iron-fed normal mice): did not increase ROS

Compound: Abeta: beta-amyloid fragment of the amyloid precursor protein; Abeta25-35 (Sigma) used at 20 μM (GSNKGAIIGLM; Amyloid-beta protein 42; UniProt P05067 696-706, looked up, fragment)
- increase in ROS ([1]; folate-deprived cells): 144±10%
- increase in ROS ([1]; in the presence of folate): 34±4%
- cellular ATP ([3]; 20 μM Abeta): reduced cellular ATP
